# Source: patent publication US9957271B2, “Substituted bicyclic aza-heterocycles and analogues as sirtuin modulators” (GlaxoSmithKline, LLC, priority 2012, dated 2018)
# Tests used:
# SIRT1 [1] = target: T1, SIRT1 (Homo sapiens, UniProt Q96EB6); assay: TAMRA based mass spectrometry assay of SIRT1 activity; type: biochemical; settings: for TAMRA EC1.5 (μM) / TAMRA EC1.5: concentration giving 150% activation of SIRT1; for Emax: percent maximum fold activation, read-out: TAMRA % Fold Act
# T1 sequence (Q96EB6 1-747): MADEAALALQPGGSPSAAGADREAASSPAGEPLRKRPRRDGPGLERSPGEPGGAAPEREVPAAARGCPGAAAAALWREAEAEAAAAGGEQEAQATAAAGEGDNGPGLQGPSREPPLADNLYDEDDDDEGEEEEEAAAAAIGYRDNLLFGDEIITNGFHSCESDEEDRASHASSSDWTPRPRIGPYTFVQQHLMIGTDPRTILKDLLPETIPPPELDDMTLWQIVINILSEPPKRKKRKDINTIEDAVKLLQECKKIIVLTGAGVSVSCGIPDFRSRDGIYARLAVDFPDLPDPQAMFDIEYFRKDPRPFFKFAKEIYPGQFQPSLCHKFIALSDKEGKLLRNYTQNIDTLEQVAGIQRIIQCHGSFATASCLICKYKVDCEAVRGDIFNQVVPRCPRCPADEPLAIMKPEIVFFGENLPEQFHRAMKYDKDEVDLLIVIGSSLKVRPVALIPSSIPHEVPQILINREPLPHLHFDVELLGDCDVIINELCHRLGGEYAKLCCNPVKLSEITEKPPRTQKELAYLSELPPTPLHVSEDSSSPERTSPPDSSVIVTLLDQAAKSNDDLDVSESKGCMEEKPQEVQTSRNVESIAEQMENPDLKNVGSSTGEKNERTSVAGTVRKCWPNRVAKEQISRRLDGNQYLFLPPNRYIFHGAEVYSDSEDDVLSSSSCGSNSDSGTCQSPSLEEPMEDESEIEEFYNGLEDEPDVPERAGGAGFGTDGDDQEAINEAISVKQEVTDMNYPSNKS
# Summary of the method: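 Deacetylation of a biotinylated, TAMRA-tagged p53-based peptide (0.5 μM) by 10 nM His-tagged SIRT1 with 120 μM βNAD+, 25 °C for 25 min, pH 8 Tris-acetate buffer, across a compound concentration range. Quenched by formic acid and read by mass spec as product peptide or OAADPR; activity relative to DMSO reactions, nicotinamide defining maximal inhibition.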
# SIRT1 [2] = target: T1, SIRT1; assay: Trp mass spectrometry assay of SIRT1 activity; type: biochemical; settings: for Trp EC1.5 (μM) / Trp EC1.5: concentration giving 150% activation of SIRT1; for Emax: percent maximum fold activation, read-out: Trp % Fold Act
# Summary of the method: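 Activation readout: EC1.5 (concentration raising activity 50% over control) and percent maximum activation, from mass-spec quantitation of OAADPR or deacetylated Trp peptide. Reaction: 0.5 μM acetylated Trp peptide, 120 μM βNAD+, 10 nM bacterially expressed N-His SIRT1, pH 7.5 HEPES buffer with […], 25 min at 25° C.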
Structure (SMILES),TAMRA EC1.5 (μM) (SIRT1 [1]; TAMRA assay),Emax (SIRT1 [1]; TAMRA assay),Trp EC1.5 (μM) (SIRT1 [2]; Trp assay),Emax (SIRT1 [2]; Trp assay),TAMRA EC1.5 (SIRT1 [1]; TAMRA peptide substrate),Emax (SIRT1 [1]; TAMRA peptide substrate),Trp EC1.5 (SIRT1 [2]; Trp peptide substrate),Emax (SIRT1 [2]; Trp peptide substrate)
Cc1nc2ccc(-c3ccccc3C(F)(F)F)nn2c1NC(=O)c1cccc(N2CCC2)n1 [Compound 383],A (EC1.5<1 μM),≥ 350%,B (EC1.5 1-25 μM),≥ 350%,–,–,–,–
Cc1c(-c2ccccc2Cl)nn2c(NC(=O)c3cccc(N4CCCC4)n3)cnc2c1C [Compound 386],A (EC1.5<1 μM),≥ 350%,B (EC1.5 1-25 μM),< 350%,–,–,–,–
"Cc1c(-c2ccccc2C(F)(F)F)nn2c(C(=O)Nc3cccc(OC[C@H](O)CO)n3)cnc2c1C [Compound 387, (R)-N-(6-(2,3-dihydroxypropoxy)pyridin-2-yl)-7,8-dimethyl-6-(2-(trifluoromethyl)phenyl)imidazo[1,2-b]pyridazine-3-carboxamide]",A (EC1.5<1 μM),≥ 350%,A (EC1.5<1 μM),≥ 350%,–,–,–,–
Cc1nccc(C(=O)Nc2cnc3ccc(-c4ccccc4C(F)(F)F)nn23)n1 [Compound 389],A (EC1.5<1 μM),≥ 350%,B (EC1.5 1-25 μM),< 350%,–,–,–,–
Cc1ncccc1C(=O)Nc1cnc2ccc(-c3ccccc3C(F)(F)F)nn12 [Compound 392],C (EC1.5>25 μM),< 350%,C (EC1.5>25 μM),< 350%,–,–,–,–
Cc1ccc(C(=O)Nc2cnc3ccc(-c4ccccc4C(F)(F)F)nn23)cn1 [Compound 393],B (EC1.5 1-25 μM),< 350%,C (EC1.5>25 μM),< 350%,–,–,–,–
O=C(Nc1cccnn1)c1cnc2ccc(-c3ccccc3OC(F)(F)F)nn12 [Compound 395],A (EC1.5<1 μM),≥ 350%,A (EC1.5<1 μM),≥ 350%,–,–,–,–
Cc1cc(NC(=O)c2cnc3ccc(-c4ccccc4OC(F)(F)F)nn23)nc(C)n1 [Compound 398],–,–,–,–,A (EC1.5<1 μM),≥ 350%,B (EC1.5 1-25 μM),< 350%
Cc1ccnc(NC(=O)c2cnc3ccc(-c4ccccc4OC(F)(F)F)nn23)n1 [Compound 401],–,–,–,–,A (EC1.5<1 μM),≥ 350%,A (EC1.5<1 μM),≥ 350%
Cc1cc(NC(=O)c2cnc3ccc(-c4ccccc4C(F)(F)F)nn23)cc(OCC(O)CO)n1 (stereo not drawn) [Compound 406],–,–,–,–,A (EC1.5<1 μM),≥ 350%,A (EC1.5<1 μM),≥ 350%
"Cc1cc(-c2ccccc2C(F)(F)F)nn2c(NC(=O)c3ccccn3)cnc12 [Compound 407, N-(8-methyl-6-(2-(trifluoromethyl)phenyl)imidazo[1,2-b]pyridazin-3-yl)picolinamide]",–,–,–,–,A (EC1.5<1 μM),≥ 350%,B (EC1.5 1-25 μM),≥ 350%
Cc1nc(C(=O)Nc2cnc3c(C)cc(-c4ccccc4C(F)(F)F)nn23)cs1 [Compound 412],–,–,–,–,A (EC1.5<1 μM),≥ 350%,A (EC1.5<1 μM),≥ 350%
Cc1nc(C(=O)Nc2cnc3c(C)cc(-c4ccccc4C(F)(F)F)nn23)c(C)s1 [Compound 413],–,–,–,–,A (EC1.5<1 μM),≥ 350%,A (EC1.5<1 μM),< 350%
Cc1cc(NC(=O)c2cnc3ccc(-c4ccccc4OCC(O)CO)nn23)cc(C)n1 (stereo not drawn) [Compound 415],–,–,–,–,A (EC1.5<1 μM),≥ 350%,B (EC1.5 1-25 μM),≥ 350%
Cc1cc(NC(=O)c2cnc3ccc(-c4cccc(OCC(O)CO)c4)nn23)cc(C)n1 (stereo not drawn) [Compound 418],–,–,–,–,B (EC1.5 1-25 μM),< 350%,C (EC1.5>25 μM),< 350%
Cc1cc(NC(=O)c2cnc3ccc(-c4ccccc4OC(F)(F)F)nn23)cc(C)n1 [Compound 419],–,–,–,–,A (EC1.5<1 μM),≥ 350%,A (EC1.5<1 μM),≥ 350%

# Continued, values first:
TAMRA EC1.5 (μM) (SIRT1 [1]; TAMRA assay),Emax (SIRT1 [1]; TAMRA assay),Trp EC1.5 (μM) (SIRT1 [2]; Trp assay),Emax (SIRT1 [2]; Trp assay),TAMRA EC1.5 (SIRT1 [1]; TAMRA peptide substrate),Emax (SIRT1 [1]; TAMRA peptide substrate),Trp EC1.5 (SIRT1 [2]; Trp peptide substrate),Emax (SIRT1 [2]; Trp peptide substrate),Structure (SMILES)
–,–,–,–,A (EC1.5<1 μM),≥ 350%,A (EC1.5<1 μM),≥ 350%,Cc1c(-c2ccccc2C(F)(F)F)nn2c(NC(=O)c3cccc(N4CCCC4)n3)cnc2c1C [Compound 421]
–,–,–,–,A (EC1.5<1 μM),≥ 350%,B (EC1.5 1-25 μM),< 350%,Cc1cnc(C(=O)Nc2cnc3c(C)cc(-c4ccccc4C(F)(F)F)nn23)s1 [Compound 424]
–,–,–,–,A (EC1.5<1 μM),≥ 350%,A (EC1.5<1 μM),≥ 350%,Cc1cc(-c2ccccc2C(F)(F)F)nn2c(NC(=O)c3cccc(N4CCOCC4)n3)cnc12 [Compound 425]
–,–,–,–,A (EC1.5<1 μM),≥ 350%,A (EC1.5<1 μM),≥ 350%,Cc1cc(-c2ccccc2C(F)(F)F)nn2c(NC(=O)c3cccc(OCC(O)CO)n3)cnc12 (stereo not drawn) [Compound 427]
–,–,–,–,A (EC1.5<1 μM),≥ 350%,A (EC1.5<1 μM),≥ 350%,"Cc1nc2c(C)cc(-c3ccccc3C(F)(F)F)nn2c1C(=O)Nc1cccnn1 [Compound 428, 2,8-dimethyl-N-(pyridazin-3-yl)-6-(2-(trifluoromethyl)phenyl)imidazo[1,2-b]pyridazine-3-carboxamide]"
–,–,–,–,A (EC1.5<1 μM),≥ 350%,A (EC1.5<1 μM),≥ 350%,COc1nccc(NC(=O)c2cnc3ccc(-c4ccccc4OC(F)(F)F)nn23)n1 [Compound 430]
–,–,–,–,A (EC1.5<1 μM),≥ 350%,B (EC1.5 1-25 μM),< 350%,Cc1cccc(NC(=O)c2cnc3ccc(-c4ccccc4OC(F)(F)F)nn23)n1 [Compound 431]
–,–,–,–,A (EC1.5<1 μM),≥ 350%,C (EC1.5>25 μM),< 350%,Cc1nc(C(=O)Nc2cnc3cc(C)c(-c4ccccc4C(F)(F)F)nn23)cs1 [Compound 433]
–,–,–,–,A (EC1.5<1 μM),≥ 350%,C (EC1.5>25 μM),< 350%,Cc1cc(C)nc(C(=O)Nc2cnc3ccc(-c4ccccc4C(F)(F)F)nn23)c1 [Compound 436]
–,–,–,–,A (EC1.5<1 μM),≥ 350%,A (EC1.5<1 μM),≥ 350%,COc1cccc(C(=O)Nc2cnc3ccc(-c4ccccc4C(F)(F)F)nn23)n1 [Compound 437]
–,–,–,–,A (EC1.5<1 μM),≥ 350%,A (EC1.5<1 μM),< 350%,O=C(Nc1cnc2ccc(-c3ccccc3C(F)(F)F)nn12)c1ncccc1F [Compound 439]
–,–,–,–,A (EC1.5<1 μM),≥ 350%,C (EC1.5>25 μM),< 350%,Cc1cc2ncc(NC(=O)c3cnccn3)n2nc1-c1ccccc1C(F)(F)F [Compound 442]
–,–,–,–,A (EC1.5<1 μM),≥ 350%,C (EC1.5>25 μM),< 350%,Cc1cc2ncc(NC(=O)c3ccncn3)n2nc1-c1ccccc1C(F)(F)F [Compound 443]
–,–,–,–,A (EC1.5<1 μM),≥ 350%,B (EC1.5 1-25 μM),< 350%,Cc1nc(C(=O)Nc2cnc3cc(C)c(-c4ccccc4C(F)(F)F)nn23)c(C)s1 [Compound 445]
